Source: publication PMC12775434, “Ultra-large virtual screening unveils potent agonists of the neuromodulatory orphan receptor GPR139” (Nature Communications, 2025)
“And” between values parts separate entries of the source, which are not always exact repeats. Equal values may be shown once.

Legend:
Assay type in all cases: cell-based
GPR139 [1] = biological target: T1, GPR139 (Homo sapiens, UniProt Q6DWJ6); assay: Ca2+ mobilization assay, antagonist mode (EC80 800 nM Lundbeck Cmp 1a after 20 min preincubation), GPR139-CHOk1; details: individual replicates (Supplementary Figure 4)
T1 sequence (Q6DWJ6 1-353): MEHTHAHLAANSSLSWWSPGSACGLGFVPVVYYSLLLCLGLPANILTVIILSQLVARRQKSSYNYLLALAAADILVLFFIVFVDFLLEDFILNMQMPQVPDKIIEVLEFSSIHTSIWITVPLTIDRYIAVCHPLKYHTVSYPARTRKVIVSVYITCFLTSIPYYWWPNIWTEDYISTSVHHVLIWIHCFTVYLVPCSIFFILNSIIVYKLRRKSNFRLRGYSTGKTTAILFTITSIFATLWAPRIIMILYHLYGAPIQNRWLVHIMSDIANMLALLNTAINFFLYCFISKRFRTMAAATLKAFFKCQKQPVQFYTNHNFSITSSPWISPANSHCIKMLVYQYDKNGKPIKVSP
Method in brief: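 Antagonist mode: 800 nM (EC80) reference agonist Lundbeck Cmp 1a added following 20 min pre-incubation with 10 µM compound. GPR139-CHOk1 cells, Fluo-4 dye, probenecid-containing HEPES buffer pH 7.4; intracellular Ca2+ measured at 37 °C (ex 485, em 525 nm).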

[2] = biological target: T2, human muscarinic acetylcholine M1 receptor (M1R) (Homo sapiens, UniProt P11229); assay: Ca2+ mobilization counter-screen in M1R-CHOk1 cells; details: individual replicates (Supplementary Figure 5)
T2 sequence (P11229 1-460): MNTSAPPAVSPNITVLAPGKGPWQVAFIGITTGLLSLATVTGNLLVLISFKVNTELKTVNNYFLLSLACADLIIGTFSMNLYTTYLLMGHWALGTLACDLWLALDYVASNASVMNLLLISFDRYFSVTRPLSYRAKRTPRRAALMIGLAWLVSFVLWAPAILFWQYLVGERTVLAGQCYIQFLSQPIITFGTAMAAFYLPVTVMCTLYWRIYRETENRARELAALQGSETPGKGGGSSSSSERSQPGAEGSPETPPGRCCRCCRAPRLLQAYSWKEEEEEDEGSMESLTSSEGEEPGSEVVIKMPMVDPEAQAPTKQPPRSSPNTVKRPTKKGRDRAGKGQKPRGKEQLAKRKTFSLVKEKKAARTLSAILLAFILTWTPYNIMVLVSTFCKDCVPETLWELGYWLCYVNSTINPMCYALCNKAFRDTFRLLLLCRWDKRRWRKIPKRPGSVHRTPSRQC
Method in brief: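 Cells expressing M1R were grown 20–24 h, washed, then incubated 1 h at 37 °C with 2 µM Fluo-4 AM. After a wash and 10 min in probenecid buffer, test compounds were injected following a baseline read, and intracellular Ca2+ rise was monitored at 37 °C.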

GPR139 [3] = biological target: T1, GPR139; assay: Ca2+ mobilization assay, agonist mode, stable GPR139-CHOk1 cell line
Method in brief: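 Agonist activity of compounds is assessed in stably transfected CHO-K1 cells using the calcium dye Fluo-4 at 37 °C in HEPES-buffered HBSS (pH 7.4). Efficacy is expressed relative to the reference agonist Lundbeck Cmp 1a, set as 100%.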

**Q.** How did the “Ca2+ signal (% of Cmp 1a)” value (GPR139 [1]) turn out when `CC(=O)c1ccc(-c2nc(CC(=O)NC(C)c3ccccc3)no2)s1` (stereo not shown) [Compound 1.28, CC(C1=CC=CC=C1)NC(CC2=NOC(C3=CC=C(C(C)=O)S3)=N2)=O] was run?
**A.** The value was 19 % of Cmp 1a and 58 % of Cmp 1a and 22 % of Cmp 1a.

**Q.** What about the “Ca2+ signal (% of Carbachol)” value [2] of the same compound?
**A.** The value was -12 % of Carbachol and -1.79 % of Carbachol and -4.4 % of Carbachol.

**Q.** And the “Ca2+ signal (% of Cmp 1a)” value (GPR139 [3]; Agonist mode, individual replicates (Supplementary Figure 4))?
**A.** The value was 64 % of Cmp 1a and 62 % of Cmp 1a and 50 % of Cmp 1a.

**Q.** What about the “change in potency with larger substituents on the thiophene ring” value (GPR139 [3]; Ca2+ mobilization) of the same compound?
**A.** Its value is “three-fold reduction to a complete loss of activity”.

**Q.** What about the EC50 (GPR139 [3]; Supplementary Table 2, mean ± SEM, read-out: pEC50 Ca2+ (converted)) of the same compound?
**A.** The EC50 was 2510 nM.

**Q.** And the Emax (GPR139 [3]; Supplementary Table 2, normalized to Lundbeck Cmp 1a, mean ± SEM, read-out: Emax (%) Ca2+)?
**A.** Its Emax is 66 ± 3%.

**Q.** What about the “Ca2+ signal (% of Cmp 1a)” value (GPR139 [3]; log [Compound] M = -4.5, individual replicate columns) of the same compound?
**A.** Its value is 66 % of Cmp 1a and 68 % of Cmp 1a and 55 % of Cmp 1a and 56 % of Cmp 1a and 59 % of Cmp 1a.

**Q.** What about the “Ca2+ signal (% of Cmp 1a)” value (GPR139 [3]; log [Compound] M = -5.0, individual replicate columns) of the same compound?
**A.** The value was 77 % of Cmp 1a and 66 % of Cmp 1a and 55 % of Cmp 1a and 46 % of Cmp 1a and 59 % of Cmp 1a.

**Q.** What about the “Ca2+ signal (% of Cmp 1a)” value (GPR139 [3]; log [Compound] M = -5.5, individual replicate columns) of the same compound?
**A.** Its value is 54 % of Cmp 1a and 43 % of Cmp 1a and 37 % of Cmp 1a and 21 % of Cmp 1a and 29 % of Cmp 1a.

**Q.** What about the “Ca2+ signal (% of Cmp 1a)” value (GPR139 [3]; log [Compound] M = -6.0, individual replicate columns) of the same compound?
**A.** Its value is 23 % of Cmp 1a and 21 % of Cmp 1a and 9 % of Cmp 1a and 3.16 % of Cmp 1a and 14 % of Cmp 1a.

**Q.** And the “Ca2+ signal (% of Cmp 1a)” value (GPR139 [3]; log [Compound] M = -6.5, individual replicate columns)?
**A.** Its value is 6.51 % of Cmp 1a and 1.59 % of Cmp 1a and -12 % of Cmp 1a and -2.27 % of Cmp 1a and -4.37 % of Cmp 1a.

**Q.** And the “Ca2+ signal (% of Cmp 1a)” value (GPR139 [3]; log [Compound] M = -7.0, individual replicate columns)?
**A.** The value was -1.28 % of Cmp 1a and 2.34 % of Cmp 1a and -6.44 % of Cmp 1a and 7 % of Cmp 1a and -2 % of Cmp 1a.

**Q.** And the “Ca2+ signal (% of Cmp 1a)” value (GPR139 [3]; log [Compound] M = -7.5, individual replicate columns)?
**A.** The value was 0.626 % of Cmp 1a and 6.36 % of Cmp 1a and -9 % of Cmp 1a and -0.267 % of Cmp 1a and 3 % of Cmp 1a.

**Q.** And the “Ca2+ signal (% of Cmp 1a)” value (GPR139 [3]; log [Compound] M = -8.0, individual replicate columns)?
**A.** Its value is -4.49 % of Cmp 1a and 4.31 % of Cmp 1a and -8 % of Cmp 1a and 1.18 % of Cmp 1a and -3.25 % of Cmp 1a.

**Q.** What about the “Ca2+ signal (% of Cmp 1a)” value (GPR139 [3]; log [Compound] M = -8.5, individual replicate columns) of the same compound?
**A.** Its value is -6.33 % of Cmp 1a and -0.329 % of Cmp 1a and -3.24 % of Cmp 1a and -1.55 % of Cmp 1a and -1.43 % of Cmp 1a.

**Q.** What about the “Ca2+ signal (% of Cmp 1a)” value (GPR139 [3]; log [Compound] M = -9.0, individual replicate columns) of the same compound?
**A.** Its value is -6.38 % of Cmp 1a and -2.27 % of Cmp 1a and -10 % of Cmp 1a and -4 % of Cmp 1a and 1.43 % of Cmp 1a.
